Reference: publication PMC9505538, “P-Glycoprotein (MDR1/ABCB1) Restricts Brain Accumulation of the Novel EGFR Inhibitor EAI045 and Oral Elacridar Coadministration Enhances Its Brain Accumulation and Oral Exposure” (Pharmaceuticals, 2022)

Key:
[1] = mouse, in vivo
Protocol: We subsequently analyzed the single and combined effects of Abcb1 and Abcg2 deficiencies on EAI045 plasma pharmacokinetics and tissue accumulation using male WT, Abcg2^-/-, Abcb1a/1b^-/-, and Abcb1a/1b;Abcg2^-/- mice. As we wanted to assess tissue concentrations while plasma concentrations were still relatively high; we terminated this experiment at 30 min.
(§1) Mice (Mus musculus) were bred in the Netherlands Cancer Institute and housed and handled according to institutional guidelines complying with Dutch and EU legislation. Animals used were WT, Abcb1a/1b^-/- [39], Abcg2^-/- [40], Abcb1a/1b;Abcg2^-/- [41], Cyp3a^-/- [42], and Oatp1a/1b^-/- [43] mice of a >99% FVB/N strain background. Homozygous CYP3A4 humanized transgenic mice (Cyp3aXAV) were generated by cross-breeding of transgenic mice with stable human CYP3A4 expression in the liver or intestine, respectively, in a Cyp3a^-/- background. Proper functionality of the knockout and transgenic strains was monitored by regular testing with a variety of drug substrates. All the mice used were between 10 and 15 weeks of age. Animals were kept in a temperature-controlled environment with a 12 h light/12 h dark cycle and received a standard diet (Transbreed, SDS Diets, Technilab-BMI, The Netherlands) and acidified water ad libitum. Depending on the type of experiment, 5 or 6 mice were tested in each experimental group. All experimental animal protocols, including power calculations, were ethically assessed and designed under the nationally approved DEC/CCD project AVD301002016595 (approval date, 10 August 2016) and evaluated and approved by the institutional animal care and use committee (IACUC) of the Netherlands Cancer Institute.
EAI045 was dissolved in dimethyl sulfoxide (DMSO) at a concentration of […], and then diluted with a mixture of polysorbate 80/ethanol (1:1, v/v), and further diluted with 5% (w/v) glucose in water to yield a concentration of 2 mg/mL. Final concentrations for DMSO, polysorbate 80, ethanol, and glucose in the dosing solution were 5%, 2.5%, 2.5%, and 4.5% (v/v/v/w), respectively. Elacridar hydrochloride was dissolved in DMSO at a concentration of 53 mg/mL, then diluted with a mixture of polysorbate 80, ethanol, and water [20:13:67, (v/v/v)] to yield a concentration of 5 mg/mL elacridar. The final oral dose of elacridar was 50 mg/kg body weight. All dosing solutions were prepared freshly on the day of experiment.
To minimize variation in absorption, mice were fasted for about 3 h before EAI045 was administered by gavage into the stomach (n = 5–6), using a blunt-ended needle. EAI045 was administered orally at dose of 20 mg/kg. Elacridar was administered orally at a dose of 50 mg/kg, 3 h prior to oral EAI045 administration. For the 24- or 4-h experiments, tail vein blood samplings were performed at 5 min, 30 min, 1, 2, 4, and 8 h, or 5 min, 15 min, 30 min, 1, and 2 h time points after oral administration of EAI045, respectively, using microvettes containing heparin. For the 30 min experiments, blood samplings were performed at 5, 10, and 20 min from the tail vein. At the last time point (24 h, 4 h, or 30 min), mice were anesthetized with isoflurane and blood was collected by cardiac puncture. Then, mice were sacrificed by cervical dislocation and brain, liver, spleen, kidneys, lung, small intestine with content (SIWC), and testis were rapidly removed and weighed. Tissues were homogenized on ice in appropriate volumes of 2% (w/v) BSA. Blood samples were centrifuged at 9000× g for 6 min at 4 °C immediately after collection. All samples were stored at −30 °C until analysis.

[2] = mouse, in vivo; remark: listed apart in the source
Protocol: A 4-h pilot experiment was performed in female wild-type (WT) and double-knockout Abcb1a/1b;Abcg2^-/- mice, with oral administration of 20 mg/kg EAI045. As shown in Supplemental Figure S2A,B, EAI045 was very rapidly absorbed in all strains, with an apparent tmax around 5 min.
We further measured the brain, liver, kidney, spleen, lung, and small intestine with content (SIWC) concentrations of EAI045 4 h after oral administration. Whereas at t = 4 h the plasma concentrations between the two strains were similar, the brain concentrations and brain-to-plasma ratios in Abcb1a/1b;Abcg2^-/- mice were dramatically higher than those in WT mice (25-fold and 12-fold, respectively, Supplemental Figure S3A,B). […] In contrast, the small intestine with content (SIWC) percentage of dose (SIWC%) and SIWC%-to-plasma ratio was reduced in Abcb1a/1b;Abcg2^-/- mice (Supplemental Figure S3K,L).
as §1
EAI045 was dissolved in dimethyl sulfoxide (DMSO) at a concentration of 4 mg/mL, and then diluted with a mixture of polysorbate 80/ethanol (1:1, v/v), and further diluted with 5% (w/v) glucose in water to yield a concentration of 2 mg/mL. Final concentrations for DMSO, polysorbate 80, ethanol, and glucose in the dosing solution were 5%, 2.5%, 2.5%, and 4.5% (v/v/v/w), respectively. […]

[3] = system: lung cancer driven by EGFR(L858R/T790M); conditions: cited from earlier work

SMILES: O=C(Nc1nccs1)C(c1cc(F)ccc1O)N1Cc2ccccc2C1=O (stereo not shown) [EAI045]
- Kp.SIWC% (SIWC%-to-plasma ratio), fold decrease [1]: 3.6 fold
- SIWC%, fold decrease [1]: 2.1 fold
- brain-to-plasma ratio, fold increase [1]: 5.2 fold
- plasma AUC0–30min, fold increase [1]: 2.1 fold
- percentage of dose left in intestinal lumen (SIWC%) [2]: 1.7%
- apparent tmax ([2]; po, 20 mg/kg): around 5 min
- plasma exposure over 4 h (AUC0–4h) ([2]; po, 20 mg/kg): not meaningfully altered
- brain-to-plasma ratio ([2]; po, 20 mg/kg, 4 h): 0.15
- effect in L858R/T790M mutant mice, combination treatment ([3]; EAI045 combined with cetuximab): marked tumor regressions
- effect in L858R/T790M mutant mice, agent alone ([3]; single agent): very modest effect
